From ChEMBL document CHEMBL1208672, “Novel 8-arylated purines as inhibitors of glycogen synthase kinase” (Eur J Med Chem, 2010)

Columns and labels:
[1] = target: Glycogen synthase kinase-3 alpha (Homo sapiens) (UniProt P49840); experiment: Inhibition of human GSK3alpha assessed as residual activity at 1 uM relative to control
[2] = target: T1, Cyclin-dependent kinase 5/CDK5 activator 1 (Homo sapiens) (UniProt Q00535+Q15078); experiment: Inhibition of CDK5/p25 assessed as residual activity at 1 uM relative to control; type: protein-complex assay
T1 sequence (Q00535 whole entry): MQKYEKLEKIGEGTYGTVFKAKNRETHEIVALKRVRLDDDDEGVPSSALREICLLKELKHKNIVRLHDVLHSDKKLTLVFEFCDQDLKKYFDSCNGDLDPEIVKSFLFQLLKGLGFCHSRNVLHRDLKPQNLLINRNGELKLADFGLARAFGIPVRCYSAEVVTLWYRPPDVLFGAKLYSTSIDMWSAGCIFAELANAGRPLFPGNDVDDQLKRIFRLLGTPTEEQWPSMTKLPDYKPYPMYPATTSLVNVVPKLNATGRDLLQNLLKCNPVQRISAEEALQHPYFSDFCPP
T1 sequence (Q15078 99-307 partner limits assumed): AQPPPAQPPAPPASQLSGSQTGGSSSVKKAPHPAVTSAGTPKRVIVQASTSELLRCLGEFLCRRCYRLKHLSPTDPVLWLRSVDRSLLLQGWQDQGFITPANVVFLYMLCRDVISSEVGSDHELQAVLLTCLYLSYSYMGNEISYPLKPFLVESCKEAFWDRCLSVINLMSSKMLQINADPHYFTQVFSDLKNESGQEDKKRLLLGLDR

[3] = target: T2, Glycogen synthase kinase-3 beta (Homo sapiens, UniProt P49841)
Target sequence in this assay (P49841 whole entry): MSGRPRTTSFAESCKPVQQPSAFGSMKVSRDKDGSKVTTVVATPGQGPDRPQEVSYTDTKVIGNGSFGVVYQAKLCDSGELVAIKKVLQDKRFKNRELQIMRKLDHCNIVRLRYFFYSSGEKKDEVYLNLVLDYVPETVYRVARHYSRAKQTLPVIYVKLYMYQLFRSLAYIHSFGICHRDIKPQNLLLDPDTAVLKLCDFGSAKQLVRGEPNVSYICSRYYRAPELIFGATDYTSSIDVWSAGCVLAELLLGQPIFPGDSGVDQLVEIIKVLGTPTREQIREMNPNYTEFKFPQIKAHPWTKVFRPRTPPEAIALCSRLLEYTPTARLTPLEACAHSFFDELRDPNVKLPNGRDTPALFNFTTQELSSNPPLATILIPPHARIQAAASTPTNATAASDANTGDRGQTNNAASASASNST

[4] = target: T1, Cyclin-dependent kinase 5/CDK5 activator 1 (Homo sapiens); experiment: Inhibition of CDK5/p25 assessed as residual activity at 10 uM relative to control; type: protein-complex assay
[5] = target: Casein kinase I isoform alpha (Homo sapiens) (UniProt P48729); experiment: Inhibition of CK1alpha1 assessed as residual activity at 10 uM relative to control
Casein kinase I isoform alpha (Homo sapiens), sequence (P48729 2-337 limits assumed): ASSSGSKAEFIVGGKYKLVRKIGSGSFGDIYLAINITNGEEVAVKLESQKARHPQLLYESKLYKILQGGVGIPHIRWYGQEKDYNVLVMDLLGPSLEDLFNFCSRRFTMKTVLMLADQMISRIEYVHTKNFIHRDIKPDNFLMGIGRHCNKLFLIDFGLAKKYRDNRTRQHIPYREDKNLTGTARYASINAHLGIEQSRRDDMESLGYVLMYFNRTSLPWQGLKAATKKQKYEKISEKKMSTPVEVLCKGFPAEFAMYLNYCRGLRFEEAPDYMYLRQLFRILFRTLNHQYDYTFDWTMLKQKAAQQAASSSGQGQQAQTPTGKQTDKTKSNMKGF

[6] = target: Casein kinase II subunit alpha (Homo sapiens) (UniProt P68400); experiment: Inhibition of CK2alpha assessed as residual activity at 10 uM relative to control
Casein kinase II subunit alpha (Homo sapiens), sequence (P68400 whole entry, looked up): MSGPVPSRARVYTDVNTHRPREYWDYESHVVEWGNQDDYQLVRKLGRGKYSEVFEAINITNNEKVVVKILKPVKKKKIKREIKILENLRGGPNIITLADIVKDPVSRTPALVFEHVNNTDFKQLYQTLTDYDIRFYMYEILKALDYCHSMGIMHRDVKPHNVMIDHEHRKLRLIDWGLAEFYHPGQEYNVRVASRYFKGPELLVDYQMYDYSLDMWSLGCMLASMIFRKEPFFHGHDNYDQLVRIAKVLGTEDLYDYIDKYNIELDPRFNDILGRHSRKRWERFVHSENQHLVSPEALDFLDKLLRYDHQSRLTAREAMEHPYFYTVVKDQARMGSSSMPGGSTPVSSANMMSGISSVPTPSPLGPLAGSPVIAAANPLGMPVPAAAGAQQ

[7] = target: Epidermal growth factor receptor (Homo sapiens) (UniProt P00533); experiment: Inhibition of EGFR assessed as residual activity at 10 uM relative to control
[8] = target: T2, Glycogen synthase kinase-3 beta; experiment: Inhibition of human GSK3-beta assessed as residual activity at 10 uM relative to control
Target sequence in this assay (P49841 whole entry, looked up): as the sequence (P49841 whole entry) above

[9] = target: Insulin-like growth factor 1 receptor (Homo sapiens) (UniProt P08069); experiment: Inhibition of IGF1R assessed as residual activity at 10 uM relative to control
Insulin-like growth factor 1 receptor (Homo sapiens), sequence (P08069 31-736 limits assumed): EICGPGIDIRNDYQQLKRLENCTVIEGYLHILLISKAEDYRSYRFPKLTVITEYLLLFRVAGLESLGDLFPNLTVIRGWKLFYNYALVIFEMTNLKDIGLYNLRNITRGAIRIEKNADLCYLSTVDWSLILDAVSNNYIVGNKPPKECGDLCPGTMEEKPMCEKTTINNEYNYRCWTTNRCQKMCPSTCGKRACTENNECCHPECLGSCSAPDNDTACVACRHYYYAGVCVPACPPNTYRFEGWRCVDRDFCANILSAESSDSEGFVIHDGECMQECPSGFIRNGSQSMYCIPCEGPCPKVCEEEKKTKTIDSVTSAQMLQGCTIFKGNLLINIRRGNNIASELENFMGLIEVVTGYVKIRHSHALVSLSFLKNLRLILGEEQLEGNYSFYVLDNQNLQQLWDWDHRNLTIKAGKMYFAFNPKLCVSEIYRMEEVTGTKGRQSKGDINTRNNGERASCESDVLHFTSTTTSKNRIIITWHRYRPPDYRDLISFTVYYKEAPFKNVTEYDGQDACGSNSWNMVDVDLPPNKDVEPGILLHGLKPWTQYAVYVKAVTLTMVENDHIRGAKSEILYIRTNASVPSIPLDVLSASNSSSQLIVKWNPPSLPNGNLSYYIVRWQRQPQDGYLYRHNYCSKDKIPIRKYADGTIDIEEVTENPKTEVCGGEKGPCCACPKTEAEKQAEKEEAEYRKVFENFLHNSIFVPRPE
Insulin-like growth factor 1 receptor (Homo sapiens), sequence (P08069 741-1367 limits assumed): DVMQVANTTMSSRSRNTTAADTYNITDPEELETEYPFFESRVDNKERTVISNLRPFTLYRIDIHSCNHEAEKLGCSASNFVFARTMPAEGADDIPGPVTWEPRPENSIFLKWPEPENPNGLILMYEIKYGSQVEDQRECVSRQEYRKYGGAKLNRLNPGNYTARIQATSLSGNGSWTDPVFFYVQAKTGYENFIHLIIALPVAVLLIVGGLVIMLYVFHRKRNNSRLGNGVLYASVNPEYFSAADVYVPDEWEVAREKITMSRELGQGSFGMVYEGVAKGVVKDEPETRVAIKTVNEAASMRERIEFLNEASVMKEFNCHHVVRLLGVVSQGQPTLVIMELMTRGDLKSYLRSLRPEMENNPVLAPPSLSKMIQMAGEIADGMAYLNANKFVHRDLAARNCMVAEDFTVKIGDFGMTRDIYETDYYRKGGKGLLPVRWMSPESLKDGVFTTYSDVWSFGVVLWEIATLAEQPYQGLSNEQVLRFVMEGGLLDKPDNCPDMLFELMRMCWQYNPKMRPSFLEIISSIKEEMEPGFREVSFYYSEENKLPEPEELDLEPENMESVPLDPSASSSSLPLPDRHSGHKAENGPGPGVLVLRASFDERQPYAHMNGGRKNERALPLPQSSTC

[10] = target: Mitogen-activated protein kinase 8 (Homo sapiens) (UniProt P45983); experiment: Inhibition of JNK1 assessed as residual activity at 10 uM relative to control
Mitogen-activated protein kinase 8 (Homo sapiens), sequence (P45983 whole entry): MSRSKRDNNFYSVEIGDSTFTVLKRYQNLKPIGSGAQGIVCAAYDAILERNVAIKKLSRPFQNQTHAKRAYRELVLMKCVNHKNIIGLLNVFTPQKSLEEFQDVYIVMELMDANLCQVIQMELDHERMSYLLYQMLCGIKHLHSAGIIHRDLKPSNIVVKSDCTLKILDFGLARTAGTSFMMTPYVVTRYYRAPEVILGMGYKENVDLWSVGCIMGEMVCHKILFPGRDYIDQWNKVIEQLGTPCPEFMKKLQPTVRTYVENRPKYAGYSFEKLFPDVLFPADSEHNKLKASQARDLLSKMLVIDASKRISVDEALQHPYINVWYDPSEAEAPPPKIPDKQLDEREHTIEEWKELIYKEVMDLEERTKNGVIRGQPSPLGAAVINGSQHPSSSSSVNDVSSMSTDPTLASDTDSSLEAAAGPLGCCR

[11] = target: MAP kinase-activated protein kinase 2 (Homo sapiens) (UniProt P49137); experiment: Inhibition of MAPKAPK2 assessed as residual activity at 10 uM relative to control
MAP kinase-activated protein kinase 2 (Homo sapiens), sequence (P49137 whole entry, looked up): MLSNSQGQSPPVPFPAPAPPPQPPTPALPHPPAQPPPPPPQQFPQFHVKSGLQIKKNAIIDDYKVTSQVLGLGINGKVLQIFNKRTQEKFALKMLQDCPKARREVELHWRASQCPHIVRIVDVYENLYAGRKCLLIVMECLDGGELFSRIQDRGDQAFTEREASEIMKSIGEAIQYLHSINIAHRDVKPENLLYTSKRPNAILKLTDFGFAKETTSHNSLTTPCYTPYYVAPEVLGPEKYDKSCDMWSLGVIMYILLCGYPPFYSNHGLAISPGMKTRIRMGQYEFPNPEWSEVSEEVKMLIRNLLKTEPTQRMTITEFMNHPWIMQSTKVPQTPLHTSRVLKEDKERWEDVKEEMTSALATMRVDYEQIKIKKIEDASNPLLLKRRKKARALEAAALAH

[12] = target: T3, Tyrosine-protein kinase receptor TYRO3 (Homo sapiens) (UniProt Q06418); experiment: Inhibition of TYRO3/SKY assessed as residual activity at 10 uM relative to control
T3 sequence (whole entry): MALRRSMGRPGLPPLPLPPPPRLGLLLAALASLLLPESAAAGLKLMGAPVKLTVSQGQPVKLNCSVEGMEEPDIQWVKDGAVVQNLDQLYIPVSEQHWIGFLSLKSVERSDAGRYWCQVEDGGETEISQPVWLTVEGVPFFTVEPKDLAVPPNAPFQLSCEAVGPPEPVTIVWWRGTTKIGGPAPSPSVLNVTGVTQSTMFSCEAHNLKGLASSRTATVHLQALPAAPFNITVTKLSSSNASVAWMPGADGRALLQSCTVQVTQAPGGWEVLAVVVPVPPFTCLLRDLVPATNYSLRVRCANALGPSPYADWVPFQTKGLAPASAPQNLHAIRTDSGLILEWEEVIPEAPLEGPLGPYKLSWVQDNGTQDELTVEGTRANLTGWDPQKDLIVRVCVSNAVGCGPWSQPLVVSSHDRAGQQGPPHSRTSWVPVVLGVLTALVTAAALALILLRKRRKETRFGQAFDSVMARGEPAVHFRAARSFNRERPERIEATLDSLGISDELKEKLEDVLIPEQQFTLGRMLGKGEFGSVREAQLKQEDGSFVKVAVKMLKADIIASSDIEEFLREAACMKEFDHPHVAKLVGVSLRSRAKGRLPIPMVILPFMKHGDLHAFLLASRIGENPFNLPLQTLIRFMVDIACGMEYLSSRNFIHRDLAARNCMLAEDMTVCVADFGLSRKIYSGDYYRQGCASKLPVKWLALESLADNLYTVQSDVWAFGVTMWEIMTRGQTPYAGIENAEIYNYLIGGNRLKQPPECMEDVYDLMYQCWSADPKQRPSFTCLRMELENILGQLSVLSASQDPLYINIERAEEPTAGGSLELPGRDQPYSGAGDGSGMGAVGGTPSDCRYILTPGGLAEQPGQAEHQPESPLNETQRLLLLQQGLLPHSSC

[13] = target: Mitogen-activated protein kinase 3 (Homo sapiens) (UniProt P27361); experiment: Inhibition of ERK1 at 10 uM relative to control; parameters: scale not given: the % may be the effect or the level left
Mitogen-activated protein kinase 3 (Homo sapiens), sequence (P27361 whole entry): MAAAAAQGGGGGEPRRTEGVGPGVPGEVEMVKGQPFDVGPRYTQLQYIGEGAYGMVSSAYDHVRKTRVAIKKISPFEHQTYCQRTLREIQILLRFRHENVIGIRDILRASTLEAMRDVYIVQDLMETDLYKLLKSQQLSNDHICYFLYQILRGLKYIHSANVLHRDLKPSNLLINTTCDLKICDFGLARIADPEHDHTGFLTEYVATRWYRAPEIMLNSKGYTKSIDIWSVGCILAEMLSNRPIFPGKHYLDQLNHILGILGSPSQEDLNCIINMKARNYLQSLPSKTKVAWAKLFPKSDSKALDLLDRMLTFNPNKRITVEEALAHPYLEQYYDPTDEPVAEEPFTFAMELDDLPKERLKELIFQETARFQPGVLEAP

Glycogen synthase kinase-3 alpha (Homo sapiens), sequence (P49840 2-483 limits assumed): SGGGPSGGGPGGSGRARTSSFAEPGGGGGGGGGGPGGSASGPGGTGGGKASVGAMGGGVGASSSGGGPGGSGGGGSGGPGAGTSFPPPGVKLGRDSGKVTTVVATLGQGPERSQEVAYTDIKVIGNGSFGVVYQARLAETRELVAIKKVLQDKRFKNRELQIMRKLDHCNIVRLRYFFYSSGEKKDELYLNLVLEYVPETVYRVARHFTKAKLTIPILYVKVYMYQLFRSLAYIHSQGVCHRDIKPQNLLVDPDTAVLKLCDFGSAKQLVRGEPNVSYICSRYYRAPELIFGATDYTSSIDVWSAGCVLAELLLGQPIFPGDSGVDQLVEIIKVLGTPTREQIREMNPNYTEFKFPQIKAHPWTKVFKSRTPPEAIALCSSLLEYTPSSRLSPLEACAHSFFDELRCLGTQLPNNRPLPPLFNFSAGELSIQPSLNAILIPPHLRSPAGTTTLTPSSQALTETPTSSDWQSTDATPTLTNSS

O=C(Nc1ncnc2[nH]c(-c3cccc(Cl)c3)nc12)C1CC1
Activity [1]: 17% | Activity [2]: 100% | IC50 [3]: 0.365 µM

c1ccc(CNc2ncnc3[nH]c(-c4ccccc4)nc23)cc1
Activity [2]: 84%

COc1ccc(CNc2ncnc3nc(-c4ccc(Cl)cc4)n(C)c23)cc1
Activity [2]: 105%

COc1ccc(CNc2ncnc3[nH]c(-c4cccnc4)nc23)cc1
Activity [2]: 95%

CC(=O)Nc1ncnc2[nH]c(-c3cccc(C#N)c3)nc12
Activity [1]: 79% | Activity [2]: 103%

CCCCC(=O)Nc1ncnc2[nH]c(-c3ccccc3)nc12
Activity [2]: 103%

O=C(Nc1ncnc2nc(-c3ccc4ccccc4c3)[nH]c12)C1CC1
IC50 [3]: 0.169 µM

C(=C\c1nc2c(N3CCCC3)ncnc2[nH]1)/c1ccccc1
Activity [1]: 87% | Activity [2]: 101%

COc1ccc(CNc2ncnc3c2nc(-c2cccc(F)c2)n3C)cc1
Activity [2]: 96%

COc1ccc(-c2nc3ncnc(NCc4ccccc4)c3n2C)cc1
Activity [2]: 102%

c1ccc(Nc2ncnc3[nH]c(-c4ccccc4)nc23)cc1
Activity [1]: 5% | Activity [2]: 63% | Activity [4]: 59.8% | Activity [5]: 100% | Activity [6]: 77% | Activity [7]: 32.7% | Activity [8]: 18.6% | Activity [9]: 96.2% | Activity [10]: 93.3% | Activity [11]: 78.2% | Activity [12]: 96.7% | Activity [13]: 110%

N#Cc1cccc(-c2nc3ncnc(Nc4ccccc4)c3[nH]2)c1
IC50 [3]: 0.026 µM

COc1ccc(C(=O)Nc2ncnc3[nH]c(/C=C/c4ccccc4)nc23)cc1
Activity [1]: 96% | Activity [2]: 104%

O=C(Nc1ncnc2[nH]c(/C=C/c3ccccc3)nc12)c1ccccc1
Activity [1]: 47% | Activity [2]: 104%

O=C(Nc1ncnc2[nH]c(/C=C/c3ccccc3)nc12)C1CC1
Activity [1]: 55% | Activity [2]: 100%

c1cncc(-c2nc3c(OCC4CCCCC4)ncnc3[nH]2)c1
Activity [2]: 101%

Cn1c(-c2cccc(F)c2)nc2c(N3CCCC3)ncnc21
Activity [2]: 100%

COc1ccc(CNc2ncnc3c2nc(-c2ccccc2)n3C)cc1
Activity [2]: 100%

C(=C\c1nc2c(NCCN3CCOCC3)ncnc2[nH]1)/c1ccccc1
Activity [1]: 99% | Activity [2]: 101%

O=C(Nc1ncnc2[nH]c(-c3cccc(Cl)c3)nc12)c1ccccc1
Activity [1]: 60% | Activity [2]: 102%

C(=C\c1nc2c(Nc3ccccc3)ncnc2[nH]1)/c1ccccc1
Activity [1]: 58% | Activity [2]: 100%

O=C(Nc1ncnc2[nH]c(/C=C/c3ccccc3)nc12)c1cccc(Br)c1
Activity [1]: 92% | Activity [2]: 101%

CCCCC(=O)Nc1ncnc2[nH]c(/C=C/c3ccccc3)nc12
Activity [1]: 55% | Activity [2]: 103%

Cn1c(-c2cccc(F)c2)nc2c(NCc3ccccc3)ncnc21
Activity [2]: 96%

CC(=O)Nc1ncnc2[nH]c(-c3ccccc3)nc12
Activity [2]: 101%

c1cncc(-c2nc3c(N4CCCC4)ncnc3[nH]2)c1
Activity [2]: 100%

CCCCC(=O)Nc1ncnc2[nH]c(-c3cccc(C#N)c3)nc12
Activity [1]: 34% | Activity [2]: 101%

O=C(Nc1ncnc2[nH]c(-c3ccccc3)nc12)C1CCCCN1 (centres undefined)
Activity [2]: 67%

CCCCC(=O)Nc1ncnc2[nH]c(-c3ccc4ccccc4c3)nc12
Activity [1]: 31% | Activity [2]: 102% | IC50 [3]: > 20 µM

CC(C)C(=O)Nc1ncnc2[nH]c(-c3ccccc3)nc12
Activity [2]: 99%

COc1ccc(C(=O)Nc2ncnc3[nH]c(-c4cccc(Cl)c4)nc23)cc1
Activity [1]: 71% | Activity [2]: 102%

CN[C@@H]1C[C@H]2O[C@@](C)([C@@H]1OC)n1c3ccccc3c3c4c(c5c6ccccc6n2c5c31)C(=O)NC4
Activity [2]: 98.4%

Cn1c(-c2cccc(F)c2)nc2c(NC(=O)C3CC3)ncnc21
Activity [2]: 99%

N#Cc1cccc(-c2nc3c(NC(=O)C4CC4)ncnc3[nH]2)c1
Activity [1]: 30% | Activity [2]: 103% | IC50 [3]: 0.781 µM

c1cncc(-c2nc3c(N4CCOCC4)ncnc3[nH]2)c1
Activity [2]: 71%

c1ccc(Nc2ncnc3nc(-c4ccccc4)[nH]c23)cc1
IC50 [3]: 0.016 µM

O=C(Nc1ncnc2[nH]c(-c3ccc4ccccc4c3)nc12)C1CC1
Activity [2]: 101% | Activity [4]: 91.4% | Activity [5]: 91.9% | Activity [6]: 59.5% | Activity [7]: 91.6% | Activity [8]: 18.4% | Activity [9]: 100% | Activity [10]: 99.2% | Activity [11]: 101% | Activity [12]: 78.2% | Activity [13]: 99.4%

Cn1c(-c2ccc(Cl)cc2)nc2ncnc(N3CCCC3)c21
Activity [2]: 97%

N#Cc1cccc(-c2nc3c(NC(=O)c4ccccc4)ncnc3[nH]2)c1
Activity [1]: 69% | Activity [2]: 102%

C(=C\c1nc2c(NCc3cccnc3)ncnc2[nH]1)/c1ccccc1
Activity [1]: 84% | Activity [2]: 96%

c1ccc(-c2nc3c(OC4CCCC4)ncnc3[nH]2)cc1
Activity [2]: 54%

O=C(Nc1ncnc2[nH]c(-c3ccccc3)nc12)c1ccccc1
Activity [1]: 67% | Activity [2]: 102%

c1ccc(-c2nc3c(NCc4cccnc4)ncnc3[nH]2)cc1
Activity [2]: 84%

Cn1c(-c2ccc([N+](=O)[O-])cc2)nc2ncnc(N3CCCC3)c21
Activity [2]: 101%

CC(C)CC(=O)Nc1ncnc2[nH]c(-c3ccccc3)nc12
Activity [2]: 102%

Cn1c(-c2ccccc2)nc2c(N3CCCC3)ncnc21
Activity [2]: 100%

N#Cc1cccc(-c2nc3c(Nc4ccccc4)ncnc3[nH]2)c1
Activity [1]: 2% | Activity [2]: 63%

O=C(Nc1ncnc2[nH]c(-c3ccccc3)nc12)C1CCCN1 (centres undefined)
Activity [2]: 93%

c1cncc(CNc2ncnc3[nH]c(-c4cccnc4)nc23)c1
Activity [2]: 102%

O=C(Nc1ncnc2[nH]c(-c3cccnc3)nc12)c1ccccc1
Activity [1]: 61% | Activity [2]: 102%

Cn1c(-c2ccc([N+](=O)[O-])cc2)nc2ncnc(NCc3ccccc3)c21
Activity [2]: 101%

O=C(Nc1ncnc2[nH]c(-c3ccccc3)nc12)C1CC1
Activity [2]: 96%

COc1ccc(C(=O)Nc2ncnc3[nH]c(-c4cccnc4)nc23)cc1
Activity [1]: 43% | Activity [2]: 107%

COc1ccc(CNc2ncnc3[nH]c(-c4ccccc4)nc23)cc1
Activity [2]: 93%

CCCCC(=O)Nc1ncnc2nc(-c3cccc(C#N)c3)[nH]c12
IC50 [3]: 1.22 µM

c1cncc(-c2nc3c(OC4CCCC4)ncnc3[nH]2)c1
Activity [1]: 57% | Activity [2]: 83%

CN(C)c1ncnc2[nH]c(-c3ccccc3)nc12
Activity [2]: 85%

COc1ccc(CNc2ncnc3nc(-c4cccc(F)c4)n(C)c23)cc1
Activity [2]: 99%

CC(=O)Nc1ncnc2[nH]c(-c3ccc4ccccc4c3)nc12
Activity [1]: 49% | Activity [2]: 98%

O=C(Nc1ncnc2[nH]c(-c3ccc4ccccc4c3)nc12)c1ccccc1
Activity [1]: 83% | Activity [2]: 100%

Cn1c(-c2ccccc2)nc2c(NCc3cccnc3)ncnc21
Activity [2]: 99%
